Source: patent publication US20240261274A1, “TREATMENT OF MYC-DRIVEN CANCERS WITH GSPT1 DEGRADERS” (MONTE ROSA THERAPEUTICS, INC., priority 2021, published 2024)
Read-outs that look alike come from different tables or passages of the source.

Key:
[1] = system: c-Myc HMEC isogenic cell line; test: c-Myc and CRBN dependency, HMEC isogenic cell line viability (CellTiterGlo); type: cell-based, Human; conditions: 72 hours
Description: Human mammary epithelial cells (HMEC) were engineered to express either c-Myc tagged with EGFP or EGFP alone (non myc) (analogous but distinct from Kessler J D et al, Science. 2012 Jan. 20; 335(6066):348-53. doi: 10.1126/science.1212728; Hsu T Y et al, Nature. 2015 Sep. 17; 525(7569):384-8. doi: 10.1038/nature14985). The engineered cells were plated in 6 well plates or seeded at 1000 (myc) or 4000 (non myc) cells/well in a 384 ultra-low attachment plate in a total volume of 40 μL HMEC cell culture media (DMEM/F12+10% HI-FBS+15 mM HEPES+0.5 ug/ml Hydrocortisone+10 ug/ml Insulin+20 ng/ml EGF). Cells were cultured in the presence or absence of doxycycline for 25 population doublings and cell lysates generated for western blotting probing for c-Myc, 4EBP1, phosphor-4EBP1 (p4EBP1) as indicated. β-actin used as a loading control. For the wash-off lane, doxycycline was removed 24 hours before cell lysis. Cell viability was assessed in the presence (Myc on) or absence (Myc off, −Dox) of doxycycline and also following doxycycline removal (Myc off, wash-off). Cell viability was performed following treatment with compound 8 for 72 hours as recommended by the provider (Promega, CellTiterGlo). Similarly, CRBN-dependency was assessed in the HMEC proficient and deficient cell lines induced for c-Myc expression with doxycycline and viability performed as above following 72 hours of treatment with compound 8. EC50 values were determined using Prism8 (GraphPad) and the asymmetric (five-parameter) equation and least squares fit.

GSPT1 = GSPT1 (Homo sapiens, UniProt P15170+Q96SW2); test: GSPT1 degradation by western blotting in NSCLC cell lines (compound 210); type: cell-based; set-up: endogenous in cells; conditions: NCI-H1155 and ABC-1 cells, six hours
Description: The anti-proliferative activity of compound 210 was tested on representative N-Myc high and N-Myc low cell lines (NCI-H1155, ABC-1 and EBC-1, NCI-H2023, respectively) following treatment with compound for 72 hours. Cells were sub-cultures as recommended by the providers (ATCC, DSMZ) and incubated at 37° C., 5% CO2. All cells were authenticated and confirmed by Short Tandem Repeat (STR) profiling. Briefly, cells were seeded to the appropriate density to allow logarithmic growth over the assay period in 96-well opaque-walled clear bottom plates (from Corning, Cat. No. 3903, Lot. No. 16419061; 100 μL total volume) and incubated overnight. […] Cell viability was assessed using the CellTiter-Glo assay kit as recommended by the Manufacturer (Promega, Cat. No. G7558, Lot. No. 0000385738) and measurements performed on the EnSpire multimode plate reader (Perkin Elmer). EC50 values were determined using Prism8 (GraphPad) and the asymmetric (five-parameter) equation and least squares fit. GSPT1 levels were assessed in the NCI-H1155 and ABC-1 cell lines by densitometry analysis following treatment with compound 210 for 6 hours and western blotting analysis. […] For chemiluminescence and colorimetric signals “optimal automatic exposure” settings (3×3 binning) were employed while fluorescence was detected using 1-4 seconds exposure time to achieve best GAPDH signals and avoid overexposure. […]

MM1 S cells = test: Apoptosis assay, caspase 3/7 activity in MM1 S cells; type: cell-based; conditions: 0 to 30 μM, 48 hours
Description: For the same MM cell line, the effect of Compound 345 on apoptosis was evaluated. MM1 S cells were treated with Compound 345 in culture at increasing concentrations ranging from 0 to 30 μM and a control group was treated with lenalidomide, a well-known MM drug. After 48 hours, fold-change caspase 3/7 activity (a marker of apoptosis) was measured and plotted against concentration of Compound 345 compared to lenalidomide as the control. […] For the same MM cell line, the impact of Compound 345 on cell viability was evaluated. MM1 S cells were treated with Compound 345 in culture at increasing concentrations ranging from 0 to 100 μM. Cell viability was measured as a percentage survival after 72 hours.
Apoptosis assay: MM1S cells were sub-cultures as recommended by the providers (ATCC, DSMZ) and incubated at 37° C., 5% CO2. Briefly, cells were seeded in white 96-well plates (100 μL/well) at a density of 50000 cells/well and incubated overnight at 37° C. with 5% CO2. […] Cell apoptosis was assessed using the Caspase-Glo® 3/7 Assay kit as recommended by the manufacturer (Promega, Cat. No. G8091, Lot. No. 0000385738) and measurements were performed on the EnSpire multimode plate reader (Perkin Elmer). EC50 values were determined using Prism8.1.2 (GraphPad) and the asymmetric (five-parameter) equation and least squares fit.

Chain of GSPT1 (P15170 whole entry): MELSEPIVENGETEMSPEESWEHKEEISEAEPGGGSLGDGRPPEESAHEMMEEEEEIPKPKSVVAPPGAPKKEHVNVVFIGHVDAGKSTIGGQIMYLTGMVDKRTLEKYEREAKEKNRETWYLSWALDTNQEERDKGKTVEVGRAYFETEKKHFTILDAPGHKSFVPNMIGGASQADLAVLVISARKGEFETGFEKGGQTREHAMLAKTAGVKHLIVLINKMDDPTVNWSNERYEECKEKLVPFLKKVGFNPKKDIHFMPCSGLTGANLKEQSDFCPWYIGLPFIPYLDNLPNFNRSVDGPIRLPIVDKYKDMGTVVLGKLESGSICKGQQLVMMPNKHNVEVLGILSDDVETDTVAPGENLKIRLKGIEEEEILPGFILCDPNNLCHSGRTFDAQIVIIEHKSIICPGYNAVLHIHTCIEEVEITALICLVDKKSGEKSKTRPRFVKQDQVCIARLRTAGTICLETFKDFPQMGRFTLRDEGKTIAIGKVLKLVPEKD
Chain of GSPT1 (Q96SW2 whole entry): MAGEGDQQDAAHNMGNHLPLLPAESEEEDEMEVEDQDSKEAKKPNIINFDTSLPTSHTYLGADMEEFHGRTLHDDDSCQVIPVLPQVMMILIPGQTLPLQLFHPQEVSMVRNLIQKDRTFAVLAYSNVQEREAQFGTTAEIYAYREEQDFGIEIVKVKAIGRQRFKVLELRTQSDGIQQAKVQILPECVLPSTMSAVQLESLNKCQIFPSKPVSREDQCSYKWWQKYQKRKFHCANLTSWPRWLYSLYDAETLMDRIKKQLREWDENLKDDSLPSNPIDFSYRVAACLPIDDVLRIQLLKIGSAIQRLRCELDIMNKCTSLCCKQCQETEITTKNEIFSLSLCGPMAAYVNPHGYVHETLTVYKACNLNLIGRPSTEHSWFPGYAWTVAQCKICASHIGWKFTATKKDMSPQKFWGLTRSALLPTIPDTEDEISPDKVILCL
Chain of GSPT1 (Q16531 whole entry partner): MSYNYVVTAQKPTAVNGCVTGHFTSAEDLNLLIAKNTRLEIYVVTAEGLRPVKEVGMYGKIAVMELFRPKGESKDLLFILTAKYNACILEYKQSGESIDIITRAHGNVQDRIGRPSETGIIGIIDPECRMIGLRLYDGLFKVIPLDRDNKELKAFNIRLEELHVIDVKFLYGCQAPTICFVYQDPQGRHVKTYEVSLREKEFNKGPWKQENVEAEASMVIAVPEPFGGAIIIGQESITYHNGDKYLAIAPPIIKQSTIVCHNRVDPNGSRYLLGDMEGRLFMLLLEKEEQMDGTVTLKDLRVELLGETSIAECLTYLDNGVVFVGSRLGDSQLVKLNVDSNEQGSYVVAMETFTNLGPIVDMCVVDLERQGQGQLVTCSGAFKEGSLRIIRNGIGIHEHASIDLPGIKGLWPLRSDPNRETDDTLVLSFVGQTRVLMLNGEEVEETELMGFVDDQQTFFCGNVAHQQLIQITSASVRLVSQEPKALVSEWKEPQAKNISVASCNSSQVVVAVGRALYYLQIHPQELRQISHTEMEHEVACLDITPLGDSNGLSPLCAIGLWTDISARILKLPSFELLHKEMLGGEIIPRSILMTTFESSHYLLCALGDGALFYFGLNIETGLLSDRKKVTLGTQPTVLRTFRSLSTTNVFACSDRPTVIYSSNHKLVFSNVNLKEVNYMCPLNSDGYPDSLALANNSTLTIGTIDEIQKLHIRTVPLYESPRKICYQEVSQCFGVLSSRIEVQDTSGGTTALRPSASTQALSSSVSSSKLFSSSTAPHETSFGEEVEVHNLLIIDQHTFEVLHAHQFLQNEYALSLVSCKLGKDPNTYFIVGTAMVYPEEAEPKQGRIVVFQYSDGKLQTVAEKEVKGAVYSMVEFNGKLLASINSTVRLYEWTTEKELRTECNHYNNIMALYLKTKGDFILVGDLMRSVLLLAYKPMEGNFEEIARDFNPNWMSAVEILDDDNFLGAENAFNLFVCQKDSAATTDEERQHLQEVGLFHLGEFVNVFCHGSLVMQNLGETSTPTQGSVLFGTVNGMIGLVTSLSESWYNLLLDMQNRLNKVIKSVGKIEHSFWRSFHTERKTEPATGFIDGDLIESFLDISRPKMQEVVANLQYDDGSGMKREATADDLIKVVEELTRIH

SMILES: Cc1ccc(NC(=O)NCc2ccc3c(c2)C(=O)N(C2CCC(=O)NC2=O)C3)cc1Cl (stereo not drawn) [Compound 8]
- cell death in cells for which cereblon was knocked out ([1]; CRBN deficient HMEC induced for c-Myc): did not induce death
- EC50 ([1]; Homo sapiens, HMEC, absence of doxycycline-driven c-Myc expression, read-out: cell death, highest concentration tested): > 30 µM
- EC50 ([1]; Homo sapiens, HMEC, presence of high c-Myc expression (doxycycline), read-out: EC50 of induced cell death): 0.64 µM
- EC50 ([1]; after doxycycline was washed out to remove c-Myc expression, read-out: cell death, highest concentration tested): > 30 µM

SMILES: Cc1ccc(NC(=O)OCc2ccc3c(c2)C(=O)N(C2CCC(=O)NC2=O)C3)cc1Cl (stereo not drawn) [Compound 210]
- extent of GSPT1 degradation (GSPT1): Complete degradation of GSPT1

SMILES: O=C1CCC(N2Cc3ccc(COC(=O)Nc4cc(OC(F)(F)F)ccc4F)cc3C2=O)C(=O)N1 (stereo not drawn) [Compound 345, (2-(2,6-dioxopiperidin-3-yl)-3-oxoisoindolin-5-yl)methyl(2-fluoro-5-(trifluoromethoxy)phenyl)carbamate]
- fold-change caspase 3/7 activity (apoptosis) (MM1 S cells): strong induction of apoptosis
